Experimental data from patent publication EP4745137A1 (Gluetacs Therapeutics (Shanghai) Co., Ltd., priority 2023, dated 2025).

Key:
Assay type in all cases: cell-based
Conditions in all cases: 24 hours of compound treatment, 50 nM and 500 nM tested (concentration behind the class not stated)
[1] = biological target: T1, IKZF2 (Homo sapiens, UniProt Q96SW2+Q9UKS7); experiment: Western-blot assay of substrate protein degradation in hPBMCs, IKZF2
T1 construct: endogenous in cells; host or cells: hPBMCs (Milecell Biotechnologies)

[2] = biological target: T2, IKZF1 (Homo sapiens, UniProt Q13422+Q96SW2); experiment: Western-blot assay of substrate protein degradation in hPBMCs, IKZF1
T2 construct: endogenous in cells; host or cells: hPBMCs (Milecell Biotechnologies)

[3] = biological target: T3, CK1α (Homo sapiens, UniProt P48729+Q96SW2); experiment: Western-blot assay of substrate protein degradation in hPBMCs, CK1α
T3 construct: endogenous in cells; host or cells: hPBMCs (Milecell Biotechnologies)

[4] = biological target: T4, IKZF3 (Homo sapiens, UniProt Q96SW2+Q9UKT9); experiment: Western-blot assay of substrate protein degradation in hPBMCs, IKZF3
T4 construct: endogenous in cells; host or cells: hPBMCs (Milecell Biotechnologies)

[5] = biological target: T5, WEE1 (Homo sapiens, UniProt P30291+Q96SW2); experiment: Western-blot assay of substrate protein degradation in hPBMCs, WEE1
T5 construct: endogenous in cells; host or cells: hPBMCs (Milecell Biotechnologies)

[6] = biological target: T6, GSPT1 (Homo sapiens, UniProt P15170+Q96SW2); experiment: Western-blot assay of substrate protein degradation in hPBMCs, GSPT1
T6 construct: endogenous in cells; host or cells: hPBMCs (Milecell Biotechnologies)
T6 sequence (P15170 whole entry): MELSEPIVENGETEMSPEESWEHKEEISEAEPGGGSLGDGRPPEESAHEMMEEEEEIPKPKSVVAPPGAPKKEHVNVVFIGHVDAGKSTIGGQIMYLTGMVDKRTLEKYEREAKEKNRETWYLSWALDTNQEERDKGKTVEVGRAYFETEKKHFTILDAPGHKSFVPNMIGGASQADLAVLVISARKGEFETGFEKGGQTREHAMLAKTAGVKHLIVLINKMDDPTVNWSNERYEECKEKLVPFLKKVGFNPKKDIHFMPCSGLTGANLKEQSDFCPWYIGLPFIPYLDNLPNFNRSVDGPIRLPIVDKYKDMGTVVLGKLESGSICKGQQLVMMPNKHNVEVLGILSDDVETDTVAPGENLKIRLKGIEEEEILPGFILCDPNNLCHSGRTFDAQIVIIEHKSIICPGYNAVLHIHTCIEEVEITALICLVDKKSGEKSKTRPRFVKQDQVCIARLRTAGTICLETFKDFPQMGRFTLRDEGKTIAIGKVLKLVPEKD
T6 sequence (Q96SW2 whole entry): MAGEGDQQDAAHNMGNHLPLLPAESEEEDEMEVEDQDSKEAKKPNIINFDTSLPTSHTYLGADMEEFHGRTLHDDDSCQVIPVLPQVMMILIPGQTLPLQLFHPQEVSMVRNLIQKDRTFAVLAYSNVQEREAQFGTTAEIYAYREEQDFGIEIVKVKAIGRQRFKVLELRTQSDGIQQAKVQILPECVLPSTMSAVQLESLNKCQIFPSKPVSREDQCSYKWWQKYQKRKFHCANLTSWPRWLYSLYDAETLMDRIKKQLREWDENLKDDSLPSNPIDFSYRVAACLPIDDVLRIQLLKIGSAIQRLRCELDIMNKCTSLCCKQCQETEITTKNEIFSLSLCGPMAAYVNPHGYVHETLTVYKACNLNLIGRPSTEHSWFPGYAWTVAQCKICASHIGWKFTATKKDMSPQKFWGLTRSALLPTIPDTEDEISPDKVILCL
T6 sequence (Q16531 whole entry partner): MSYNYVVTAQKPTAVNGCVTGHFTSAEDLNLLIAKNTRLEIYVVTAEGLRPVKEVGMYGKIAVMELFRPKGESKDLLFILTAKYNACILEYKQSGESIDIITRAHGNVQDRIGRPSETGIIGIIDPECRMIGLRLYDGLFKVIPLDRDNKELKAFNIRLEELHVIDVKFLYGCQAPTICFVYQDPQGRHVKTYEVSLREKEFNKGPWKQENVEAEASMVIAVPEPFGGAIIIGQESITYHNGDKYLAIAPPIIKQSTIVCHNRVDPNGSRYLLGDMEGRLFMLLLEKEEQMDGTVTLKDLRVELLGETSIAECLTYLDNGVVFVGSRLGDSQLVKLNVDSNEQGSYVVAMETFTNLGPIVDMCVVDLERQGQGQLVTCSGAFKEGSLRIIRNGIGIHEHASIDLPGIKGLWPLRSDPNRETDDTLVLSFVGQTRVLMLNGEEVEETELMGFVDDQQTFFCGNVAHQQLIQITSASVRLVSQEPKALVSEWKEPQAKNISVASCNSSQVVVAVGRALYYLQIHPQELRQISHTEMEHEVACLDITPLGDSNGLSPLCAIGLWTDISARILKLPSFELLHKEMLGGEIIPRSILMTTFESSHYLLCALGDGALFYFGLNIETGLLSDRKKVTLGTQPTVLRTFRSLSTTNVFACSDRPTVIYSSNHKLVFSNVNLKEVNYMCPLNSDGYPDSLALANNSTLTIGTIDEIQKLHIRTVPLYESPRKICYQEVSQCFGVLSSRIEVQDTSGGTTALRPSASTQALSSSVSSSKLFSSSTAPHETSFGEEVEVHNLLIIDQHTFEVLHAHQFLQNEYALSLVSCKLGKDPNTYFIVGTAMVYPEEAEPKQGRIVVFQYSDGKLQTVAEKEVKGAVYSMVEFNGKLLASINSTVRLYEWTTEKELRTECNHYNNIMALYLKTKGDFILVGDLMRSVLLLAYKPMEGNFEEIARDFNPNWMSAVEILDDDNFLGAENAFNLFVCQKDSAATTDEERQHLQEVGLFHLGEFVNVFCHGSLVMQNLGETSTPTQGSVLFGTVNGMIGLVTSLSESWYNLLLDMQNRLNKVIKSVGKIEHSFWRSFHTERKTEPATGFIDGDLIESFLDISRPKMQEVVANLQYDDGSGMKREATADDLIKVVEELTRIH

T5 sequence (P30291 whole entry): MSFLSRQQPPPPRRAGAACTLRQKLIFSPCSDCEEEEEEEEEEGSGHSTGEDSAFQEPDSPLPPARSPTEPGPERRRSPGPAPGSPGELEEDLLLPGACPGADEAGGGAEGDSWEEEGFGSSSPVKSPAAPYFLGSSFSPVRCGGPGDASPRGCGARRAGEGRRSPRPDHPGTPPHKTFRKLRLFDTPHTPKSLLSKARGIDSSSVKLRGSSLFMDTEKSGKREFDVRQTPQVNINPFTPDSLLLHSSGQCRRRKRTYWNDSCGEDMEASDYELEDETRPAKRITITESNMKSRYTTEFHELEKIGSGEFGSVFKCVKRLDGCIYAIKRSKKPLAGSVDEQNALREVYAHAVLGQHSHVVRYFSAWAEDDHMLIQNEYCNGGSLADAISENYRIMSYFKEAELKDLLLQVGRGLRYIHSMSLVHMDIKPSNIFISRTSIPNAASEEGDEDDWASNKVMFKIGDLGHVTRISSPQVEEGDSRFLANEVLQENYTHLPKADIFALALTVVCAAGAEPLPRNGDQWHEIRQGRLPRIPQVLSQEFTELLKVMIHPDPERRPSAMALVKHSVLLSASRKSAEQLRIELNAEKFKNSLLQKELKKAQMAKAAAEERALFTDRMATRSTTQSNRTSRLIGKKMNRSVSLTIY
T5 sequence (Q96SW2 whole entry): as the sequence (Q96SW2 whole entry) above
T5 sequence (Q16531 whole entry partner): as the sequence (Q16531 whole entry partner) above
T2 sequence (Q13422 whole entry): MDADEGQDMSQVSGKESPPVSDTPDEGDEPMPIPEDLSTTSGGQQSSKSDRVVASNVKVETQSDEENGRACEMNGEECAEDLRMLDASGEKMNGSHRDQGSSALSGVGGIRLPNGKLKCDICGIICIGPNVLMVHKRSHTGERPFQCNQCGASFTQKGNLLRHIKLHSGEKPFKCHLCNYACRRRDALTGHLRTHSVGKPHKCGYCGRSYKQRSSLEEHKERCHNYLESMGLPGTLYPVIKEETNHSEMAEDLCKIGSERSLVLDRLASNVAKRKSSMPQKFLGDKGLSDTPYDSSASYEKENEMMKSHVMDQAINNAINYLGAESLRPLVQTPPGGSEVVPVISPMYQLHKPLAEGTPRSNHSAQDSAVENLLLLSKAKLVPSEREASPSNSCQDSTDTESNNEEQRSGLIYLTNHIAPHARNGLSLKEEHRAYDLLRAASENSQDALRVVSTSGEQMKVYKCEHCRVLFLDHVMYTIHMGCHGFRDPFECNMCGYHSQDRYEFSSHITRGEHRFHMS
T2 sequence (Q96SW2 whole entry): as the sequence (Q96SW2 whole entry) above
T2 sequence (Q16531 whole entry partner): as the sequence (Q16531 whole entry partner) above
T3 sequence (P48729 whole entry): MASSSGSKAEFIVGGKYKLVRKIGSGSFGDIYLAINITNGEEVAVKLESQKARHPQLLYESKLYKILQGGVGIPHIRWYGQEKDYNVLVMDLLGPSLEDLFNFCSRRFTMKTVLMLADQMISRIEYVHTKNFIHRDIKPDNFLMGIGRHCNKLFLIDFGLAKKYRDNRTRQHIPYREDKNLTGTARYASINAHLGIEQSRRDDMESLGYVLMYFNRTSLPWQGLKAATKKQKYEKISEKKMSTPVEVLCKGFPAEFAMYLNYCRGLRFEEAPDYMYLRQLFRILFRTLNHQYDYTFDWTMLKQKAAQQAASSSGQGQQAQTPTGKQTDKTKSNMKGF
T3 sequence (Q96SW2 whole entry): as the sequence (Q96SW2 whole entry) above
T3 sequence (Q16531 whole entry partner): as the sequence (Q16531 whole entry partner) above
T1 sequence (Q9UKS7 whole entry): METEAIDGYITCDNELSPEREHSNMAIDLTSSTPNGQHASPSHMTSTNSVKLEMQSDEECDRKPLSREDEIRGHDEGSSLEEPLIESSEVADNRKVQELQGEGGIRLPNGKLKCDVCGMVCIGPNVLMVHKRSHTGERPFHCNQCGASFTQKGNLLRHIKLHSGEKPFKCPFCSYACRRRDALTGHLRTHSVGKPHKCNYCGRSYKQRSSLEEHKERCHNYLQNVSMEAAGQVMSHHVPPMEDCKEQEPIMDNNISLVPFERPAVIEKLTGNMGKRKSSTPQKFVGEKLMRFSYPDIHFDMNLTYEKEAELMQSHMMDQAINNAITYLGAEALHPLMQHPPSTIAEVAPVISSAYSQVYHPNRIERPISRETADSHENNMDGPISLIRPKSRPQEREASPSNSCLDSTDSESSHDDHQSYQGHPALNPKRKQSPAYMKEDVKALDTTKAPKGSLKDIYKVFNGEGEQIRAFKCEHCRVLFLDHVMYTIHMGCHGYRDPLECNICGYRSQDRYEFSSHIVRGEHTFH
T1 sequence (Q96SW2 whole entry): as the sequence (Q96SW2 whole entry) above
T1 sequence (Q16531 whole entry partner): as the sequence (Q16531 whole entry partner) above

| SMILES | IKZF2 substrate protein remaining % [1] | IKZF 1 substrate protein remaining % [2] | CK1a substrate protein remaining % [3] | IKZF3 substrate protein remaining % [4] | Weel substrate protein remaining % [5] | GSPT1 substrate protein remaining % [6] |
| --- | --- | --- | --- | --- | --- | --- |
| Cc1cscc1C1=CCN(Cc2ccc3c(c2)C(=O)N(C2CCC(=O)NC2=O)C3=O)CC1 (stereo not drawn) [GT-06221, 2-(2,6-dioxopiperidin-3-yl)-5-((4-(4-methylthiophen-3-yl)-3,6-dihydropyridin-1(2H)-yl)methyl)isoindoline-1,3-dione] | A (0% ≤ substrate protein remaining % ≤ 80%) | A (0% ≤ substrate protein remaining % ≤ 80%) | A (0% ≤ substrate protein remaining % ≤ 80%) | A (0% ≤ substrate protein remaining % ≤ 80%) | A (0% ≤ substrate protein remaining % ≤ 80%) | A (0% ≤ substrate protein remaining % ≤ 80%) |
| O=C1CCC(N2C(=O)c3ccc(CN4CCC(c5noc6ccccc56)CC4)cc3C2=O)C(=O)N1 (stereo not drawn) [GT-06627, 5-((4-(benzo[d]isoxazol-3-yl)piperidin-1-yl)methyl)-2-(2,6-dioxopiperidin-3-yl)isoindoline-1,3-dione] | B (80%< substrate protein remaining %≤ 100%) | B (80%< substrate protein remaining %≤ 100%) | B (80%< substrate protein remaining %≤ 100%) | B (80%< substrate protein remaining %≤ 100%) | B (80%< substrate protein remaining %≤ 100%) | A (0% ≤ substrate protein remaining % ≤ 80%) |
| Cc1cc2c(N3CCN(Cc4ccc5c(c4)C(=O)N(C4CCC(=O)NC4=O)C5=O)CC3)ncnc2s1 (stereo not drawn) [GT-06305, 2-(2,6-dioxopiperidin-3-yl)-5-((4-(6-methylthieno[2,3-d]pyrimidin-4-yl)piperazin-1-yl)methyl)isoindoline-1,3-dione] | B (80%< substrate protein remaining %≤ 100%) | B (80%< substrate protein remaining %≤ 100%) | A (0% ≤ substrate protein remaining % ≤ 80%) | B (80%< substrate protein remaining %≤ 100%) | B (80%< substrate protein remaining %≤ 100%) | B (80%< substrate protein remaining %≤ 100%) |
| O=C1CCC(N2C(=O)c3ccc(CN4CCC(c5cccc(F)c5F)CC4)cc3C2=O)C(=O)N1 (stereo not drawn) [GT-06359, 5-((4-(2,3-difluorophenyl)piperidin-1-yl)methyl)-2-(2,6-dioxopiperidin-3-yl)isoindoline-1,3-dione] | A (0% ≤ substrate protein remaining % ≤ 80%) | A (0% ≤ substrate protein remaining % ≤ 80%) | B (80%< substrate protein remaining %≤ 100%) | B (80%< substrate protein remaining %≤ 100%) | A (0% ≤ substrate protein remaining % ≤ 80%) | A (0% ≤ substrate protein remaining % ≤ 80%) |
| O=C1CCC(N2C(=O)c3ccc(CN4CCN(c5noc6ccncc56)CC4)cc3C2=O)C(=O)N1 (stereo not drawn) [GT-06630, 2-(2,6-dioxopiperidin-3-yl)-5-((4-(isoxazolo[4,5-c]pyridin-3-yl)piperazin-1-yl)methyl)isoindoline-1,3-dione] | A (0% ≤ substrate protein remaining % ≤ 80%) | B (80%< substrate protein remaining %≤ 100%) | A (0% ≤ substrate protein remaining % ≤ 80%) | B (80%< substrate protein remaining %≤ 100%) | A (0% ≤ substrate protein remaining % ≤ 80%) | A (0% ≤ substrate protein remaining % ≤ 80%) |
| O=C1CCC(N2C(=O)c3ccc(CN4CCN(c5nccc(I)c5F)CC4)cc3C2=O)C(=O)N1 (stereo not drawn) [GT-06533, 2-(2,6-dioxopiperidin-3-yl)-5-((4-(3-fluoro-4-iodopyridin-2-yl)piperazin-1-yl)methyl)isoindoline-1,3-dione] | B (80%< substrate protein remaining %≤ 100%) | B (80%< substrate protein remaining %≤ 100%) | B (80%< substrate protein remaining %≤ 100%) | B (80%< substrate protein remaining %≤ 100%) | B (80%< substrate protein remaining %≤ 100%) | A (0% ≤ substrate protein remaining % ≤ 80%) |
| O=C1CCC(N2C(=O)c3ccc(CN4CCN(c5ccc(F)c(F)c5)CC4)cc3C2=O)C(=O)N1 (stereo not drawn) [GT-06364, 5-((4-(3,4-difluorophenyl)piperazin-1-yl)methyl)-2-(2,6-dioxopiperidin-3-yl)isoindoline-1,3-dione] | B (80%< substrate protein remaining %≤ 100%) | B (80%< substrate protein remaining %≤ 100%) | B (80%< substrate protein remaining %≤ 100%) | B (80%< substrate protein remaining %≤ 100%) | B (80%< substrate protein remaining %≤ 100%) | A (0% ≤ substrate protein remaining % ≤ 80%) |
| O=C1CCC(N2C(=O)c3ccc(CN4CCN(c5c(F)cccc5F)CC4)cc3C2=O)C(=O)N1 (stereo not drawn) [GT-06363, 5-((4-(2,6-difluorophenyl)piperazin-1-yl)methyl)-2-(2,6-dioxopiperidin-3-yl)isoindoline-1,3-dione] | B (80%< substrate protein remaining %≤ 100%) | A (0% ≤ substrate protein remaining % ≤ 80%) | B (80%< substrate protein remaining %≤ 100%) | B (80%< substrate protein remaining %≤ 100%) | B (80%< substrate protein remaining %≤ 100%) | A (0% ≤ substrate protein remaining % ≤ 80%) |
| Cc1nc(C2CCN(Cc3ccc4c(c3)C(=O)N(C3CCC(=O)NC3=O)C4=O)CC2)c2ccsc2n1 (stereo not drawn) [GT-06647, 2-(2,6-dioxopiperidin-3-yl)-5-((4-(2-methylthieno[2,3-d]pyrimidin-4-yl)piperidin-1-yl)methyl)isoindoline-1,3-dione] | A (0% ≤ substrate protein remaining % ≤ 80%) | B (80%< substrate protein remaining %≤ 100%) | A (0% ≤ substrate protein remaining % ≤ 80%) | B (80%< substrate protein remaining %≤ 100%) | A (0% ≤ substrate protein remaining % ≤ 80%) | A (0% ≤ substrate protein remaining % ≤ 80%) |
| O=C1CCC(N2C(=O)c3ccc(CN4CCN(c5cc(Cl)ccc5Cl)CC4)cc3C2=O)C(=O)N1 (stereo not drawn) [GT-06356, 5-((4-(2,5-dichlorophenyl)piperazin-1-yl)methyl)-2-(2,6-dioxopiperidin-3-yl)isoindoline-1,3-dione] | B (80%< substrate protein remaining %≤ 100%) | B (80%< substrate protein remaining %≤ 100%) | B (80%< substrate protein remaining %≤ 100%) | B (80%< substrate protein remaining %≤ 100%) | B (80%< substrate protein remaining %≤ 100%) | A (0% ≤ substrate protein remaining % ≤ 80%) |
| O=C1CCC(N2C(=O)c3ccc(CN4CCN(c5ccc(Cl)cc5Cl)CC4)cc3C2=O)C(=O)N1 (stereo not drawn) [GT-06355, 5-((4-(2,4-dichlorophenyl)piperazin-1-yl)methyl)-2-(2,6-dioxopiperidin-3-yl)isoindoline-1,3-dione] | B (80%< substrate protein remaining %≤ 100%) | B (80%< substrate protein remaining %≤ 100%) | B (80%< substrate protein remaining %≤ 100%) | B (80%< substrate protein remaining %≤ 100%) | B (80%< substrate protein remaining %≤ 100%) | A (0% ≤ substrate protein remaining % ≤ 80%) |
| O=C1CCC(N2C(=O)c3ccc(CN4CCN(c5c(Cl)cncc5Br)CC4)cc3C2=O)C(=O)N1 (stereo not drawn) [GT-06599, 5-((4-(3-bromo-5-chloropyridin-4-yl)piperazin-1-yl)methyl)-2-(2,6-dioxopiperidin-3-yl)isoindoline-1,3-dione] | B (80%< substrate protein remaining %≤ 100%) | B (80%< substrate protein remaining %≤ 100%) | B (80%< substrate protein remaining %≤ 100%) | B (80%< substrate protein remaining %≤ 100%) | B (80%< substrate protein remaining %≤ 100%) | A (0% ≤ substrate protein remaining % ≤ 80%) |
| O=C1CCC(N2C(=O)c3ccc(CN4CCC(c5nccc(Cl)c5Cl)CC4)cc3C2=O)C(=O)N1 (stereo not drawn) [GT-06607, 5-((4-(3,4-dichloropyridin-2-yl)piperidin-1-yl)methyl)-2-(2,6-dioxopiperidin-3-yl)isoindoline-1,3-dione] | B (80%< substrate protein remaining %≤ 100%) | B (80%< substrate protein remaining %≤ 100%) | B (80%< substrate protein remaining %≤ 100%) | B (80%< substrate protein remaining %≤ 100%) | B (80%< substrate protein remaining %≤ 100%) | A (0% ≤ substrate protein remaining % ≤ 80%) |
